Results taken from patent publication US20260226035A1, “THIOCHROMAN DERIVATIVE AND PREPARATION METHOD THEREFOR AND USE THEREOF” (SHANGHAI INSTITUTE OF MATERIA MEDICA, CHINESE ACADEMY OF …, priority 2022, published 2026).
Where two headings read alike, the source gives them in different places.

Legend:
[1] = system: MCF-7 mouse subcutaneous tumor model; assay: Growth inhibition in MCF-7 mouse subcutaneous tumor model; format: in vivo, mice; details: p.o., QD; for mean tumour volume (mm^3), 21 days / TGI(%): 21 days; for TGI(%): LSZ102 15 mg/kg, Example 4 5 mg/kg
Description: Experimental reagents: fetal bovine serum (SH30070.03) (FBS, Hyclone, Logan, UT, USA); penicillin ([…]) (Sigma, St. Louis, MO, USA); streptomycin (85886) (Sigma, St. Louis, MO, USA); recombinant human insulin (91077C) (Sigma, St. Louis, MO, USA); EMEM medium (30-2003) (ATCC, Rockville, MD, USA); trypsin (15090046) (Gibco, Grand Island, NY, USA); HBSS ([…]), DMSO (D8418), PEG400 (8074851000), PEG300 (8074841000), PBS (806552), Solutol HS-15 (42966) (Sigma, St. Louis, MO, USA); Matrigel Matrix (BD Bioscience, USA); estrogen pellets (0.36 mg estradiol, 60-day release) (SE-121) (Innovative Research of America, Florida, USA); […] StarSignal Western Protein Marker (10-200 kDa) (M227-01) (GenStar, Beijing, China); Ponceau red, Tween 20, acrylamide, sodium dodecyl sulfate, PMSF (Solon, OH, USA); protein blotting membrane regeneration solution (ZN1923, Biolab, Beijing, China); protein lysis buffer (RIPA), 1.5 mol/L Tris HCl (pH 6.8), 1.5 mol/L Tris HCl (pH 8.8) (Beyotime, Shanghai, China); ECL luminescent solution (Thermo Fisher Scientific, Pittsburgh, PA, USA); […] Goat Anti-Rabbit IgG H&L (HRP) (ab6721) purchased from Abcam (Abcam, Cambridge, UK). […] Cell culture conditions: […] When the cells were fused to 90%, the old medium was discarded, and the cells were washed twice with 2 ml PBS. […] When the cells became round, 2 ml complete medium was quickly added to terminate digestion, and the cells were gently blown and collected, and centrifuged at 800 rpm, 4° C. for 5 min. The supernatant was discarded, the cells were resuspended with complete medium, cultured in bottles, and the medium was changed every other day. […] LSZ102 (15 mg/kg) group: […] LSZ-102 is a selective estrogen receptor degrader developed by Novartis in the clinical research stage and is one of the earliest oral SERDs to enter clinical research; […] The tumor inhibition efficacy of the compound was evaluated by tumor growth inhibition rate TGI (%).

MCF-7 cells = assay: Inhibition of MCF-7 cell proliferation (CTG/ATP method); format: cell-based; details: for anti-tumor activity, times higher than SAR439859 / anti-tumor activity, times higher than fulvestrant: MCF-7 proliferation; for anti-tumor activity, times higher than SAR439859: vs SAR439859; for anti-tumor activity, times higher than fulvestrant: vs fulvestrant; for IC50: Homo sapiens, MCF7, 144 h, read-out: IC50 (nM), inhibitory activity on MCF-7 cell proliferation
Method: The purpose of this experiment is to determine the in vitro proliferation inhibitory effect of the compounds of the present invention on the commonly used breast cancer estrogen receptor-positive cells, MCF-7 cells, and to evaluate the in vitro activity of the compounds based on IC50. The inhibitory effect of the compounds of the present invention on the proliferation of MCF-7 cells was tested by the ATP method, specifically the CTG method. CellTiter-Glo, referred to as CTG, is a rapid homogenous detection method for determining the number of viable cells in culture by quantifying ATP. ATP is a key indicator of the metabolism of living cells. The homogenous detection makes the cell lysis and the generated luminescent signal proportional to the amount of ATP present, and the amount of ATP is directly proportional to the number of cells in the culture. The specific experimental method is as follows. […] The cells were cultured in a 37° C. incubator under 5% CO2. Cell passaging, recovery and cryopreservation were performed according to conventional methods. […] On the second day, the drug with concentration gradient was added, 10 μL per well. […] The 96-well plate was incubated in 5% CO2 at 37° C. for 6 days. 50 μL of CTG reagent was added to each well of the 96-well plate, and the plate was shaken on a shaker for 5 min, and then left at room temperature and protected from light for 10 min. 60 μL of CTG reagent was transferred to the 384-well Opti-plate. The luminescence signals were read by a multifunctional enzyme marker, and the signal intensity was used to characterize the number of viable cells. The data of each dosing group were normalized to 100% of the mean value of the control group, and the data were processed and analyzed by GraphPad Prism software.

ERα of uterine tissue = ERα of uterine tissue (Rattus norvegicus, UniProt P06211); details: in vivo, po
ERα of uterine tissue, sequence (P06211 whole entry): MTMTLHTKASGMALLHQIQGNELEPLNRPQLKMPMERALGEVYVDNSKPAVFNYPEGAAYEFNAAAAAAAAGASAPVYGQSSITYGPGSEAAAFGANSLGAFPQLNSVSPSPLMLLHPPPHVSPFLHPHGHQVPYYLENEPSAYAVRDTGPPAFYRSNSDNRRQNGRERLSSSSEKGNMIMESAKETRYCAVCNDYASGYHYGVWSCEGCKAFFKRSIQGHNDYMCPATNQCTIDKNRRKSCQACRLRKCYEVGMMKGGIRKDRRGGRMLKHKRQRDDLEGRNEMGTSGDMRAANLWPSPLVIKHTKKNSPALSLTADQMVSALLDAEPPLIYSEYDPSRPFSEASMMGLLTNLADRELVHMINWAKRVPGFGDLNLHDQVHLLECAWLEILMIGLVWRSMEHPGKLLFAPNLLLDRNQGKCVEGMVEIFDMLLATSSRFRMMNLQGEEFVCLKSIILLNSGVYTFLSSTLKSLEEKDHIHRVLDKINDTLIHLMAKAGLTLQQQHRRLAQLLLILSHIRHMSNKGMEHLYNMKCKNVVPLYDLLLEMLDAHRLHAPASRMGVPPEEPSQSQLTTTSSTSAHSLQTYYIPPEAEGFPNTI
Method: HE experiment: 1) Cut the fixed uterine tissue into […] slices and place the slices in an oven for 1 hour; 2) Dewax the dried paraffin slices with conventional xylene, hydrate with gradient ethanol, and wash with distilled water; 3) Add hematoxylin to stain for 10 min to 30 min, then wash away the hematoxylin stain with running water; 4) Decolorize with 1% hydrochloric acid ethanol until the slices turn red and lighter in color, and then put them in running water to restore them to blue.

[2] = Pharmacokinetics in rats, oral; format: in vivo, SD rats; details: rat, 10 mg/kg
Method: The purpose of this experiment is to test the pharmacokinetic properties of the compounds of the present invention in rats.
The solvent is 5% DMSO+5% Solutol+90% (0.5% MC), which is a colorless and clear dosing solution. The dosing method and dosage are: oral, 10 mg/kg. SD rats were randomly divided into groups according to body weight, fasted but not watered for 12-14 hours one day before dosing, and fed 4 hours after dosing. 0.1 mL of blood was collected from each animal through the eye socket each time, anticoagulated with EDTAK2, and the collection time points were: 0, 5, 15, 30 minutes, 1, 2, 4, 6, 8, 24 hours after administration of the test compound. After blood sample collection, it was placed on ice and centrifuged within 30 minutes to separate plasma (centrifugation conditions: 5000 rpm, 10 minutes, 4° C.). It was stored at −80° C. before analysis. The concentration of compounds in rat plasma was determined by LC-MS/MS. The data acquisition and control system software was Analyst 1.5.1 software (Applied Biosystem). The peak integration method of the chromatogram sample was automatic integration; the ratio of the sample peak area to the internal standard peak area was used as an indicator and regressed with the concentration of the sample. Regression method: linear regression, weight coefficient is 1/X^2. Pharmacokinetic parameters were analyzed and processed by WinNonlin Professional v6.3 (Pharsight, USA) using non-compartmental model. Cmax is the maximum measured blood drug concentration, the area under the blood drug concentration-time curve AUC (0→t) was calculated by the trapezoidal method, and Tmax is the time when the blood drug concentration reaches the peak after administration. Experimental data are expressed as “mean±standard deviation” (Mean±SD, n≥3) or “mean” (Mean, n=2).

in vivo = details: female, Sprague-Dawley (SD), rat, po, 10 mg/kg
MCF-7 Tam1 cells = assay: Inhibition of tamoxifen-resistant MCF-7 Tam1 cell proliferation (CTG); format: cell-based; details: Homo sapiens, MCF7:TAM1, 120 h, read-out: IC50 (nM), inhibitory activity on tamoxifen-resistant cells MCF-7 Tam1

For `CC(F)(F)c1cc(F)ccc1-c1sc2cc(O)ccc2c1Oc1ccc(/C=C/C(=O)O)cc1` [LSZ102, reference compound], the “mean tumour volume (mm^3), 0 day” value [1] was 200 mm^3, the “mean tumour volume (mm^3), 21 days” value [1] was 345 mm^3 and the “TGI(%)” value [1] was 75%.
For `Oc1ccc2c(c1)SC[C@H](c1cc(F)c(F)cc1F)[C@@H]2c1ccc(OCCN2CC(CF)C2)cc1` [Example 19, (3S,4R)-4-(4-(2-(3-(fluoromethyl)azetidin-1-yl)ethoxy)phenyl)-3-(2,4,5-trifluorophenyl)-7-hydroxythiochroman], the “anti-tumor activity, times higher than SAR439859” value (MCF-7 cells) was 15.6 times and the “anti-tumor activity, times higher than fulvestrant” value (MCF-7 cells) was 7.6 times.
For 4-hydroxytamoxifen, the “Mean body weight” value (ERα of uterine tissue) was 43.9 g.
`COc1cc(F)ccc1C1CSc2cc(B(O)O)ccc2C1c1ccc(OCCN2CC(CF)C2)cc1` (stereo not drawn) [Example 10, Cis-(3-(4-fluoro-2-methoxyphenyl)-4-(4-(2-(3-(fluoromethyl)azetidin-1-yl)ethoxy)phenyl)thiochroman-7-boronic Acid] gave an IC50 (MCF-7 cells; MCF-7, CTG, 6 days) of 1.7 nM.
Work on `C[C@]12CC[C@@H]3c4ccc(O)cc4C[C@@H](CCCCCCCCC[S+]([O-])CCCC(F)(F)C(F)(F)F)[C@H]3[C@@H]1CC[C@@H]2O` (stereo partly drawn) [Fulvestrant, reference compound] yielded an IC50 (MCF-7 cells) of 1.9 nM.
With `COc1cc(F)ccc1[C@H]1CSc2cc(O)ccc2[C@H]1c1ccc(OCCN2CC(CF)C2)cc1` [Example 18, (3S,4R)-3-(4-fluoro-2-methoxyphenyl)-4-(4-(2-(3-(fluoromethyl)azetidin-1-yl)ethoxy)phenyl-)7-hydroxythiochroman] the “anti-tumor activity, times higher than SAR439859” value (MCF-7 cells) was 15.6 times, the “anti-tumor activity, times higher than fulvestrant” value (MCF-7 cells) was 7.6 times and the Tmax ([2]; Sprague-Dawley (SD), plasma) was 3 h. The half-life ([2]; Sprague-Dawley (SD), plasma) was 535 min, the “MRTPO” value [2] was 13.4 h and the “AUC0-t” value ([2]; plasma) was 1365 ng·h/mL. For the same compound, the “Cmax” value ([2]; plasma) was 198 ng/mL, the concentration at 4 h (in vivo; brain) was 17400 ng/g and the Kp at 4 h (in vivo; brain/plasma) was 14.1. For the same compound, the concentration at 4 h (in vivo; plasma) was 1230 ng/mL and the IC50 (MCF-7 Tam1 cells) was 5.37 ± 0.42 nM.
With `COc1cc(F)ccc1[C@@H]1CSc2cc(O)ccc2[C@@H]1c1ccc(OCCN2CC(CF)C2)cc1` (relative stereo) [Example 4, Cis-3-(4-fluoro-2-methoxyphenyl)-4-(4-(2-(3-(fluoromethyl)azetidin-1-yl)ethoxy)phenyl)-7-hydroxythiochroman] the “mean tumour volume (mm^3), 0 day” value [1] was 202 mm^3, the “mean tumour volume (mm^3), 21 days” value [1] was 332 mm^3 and the “TGI(%)” value [1] was 78%. It also gave an IC50 (MCF-7 Tam1 cells) of 6.84 ± 1.4 nM.
`O=C(O)c1ccc2c(c1)CCCC(c1ccc(Cl)cc1Cl)=C2c1ccc(O[C@H]2CCN(CCCF)C2)cc1` [SAR439859, reference compound] gave an IC50 (MCF-7 cells) of 3.9 nM.
